# Key:
# [1] = system: ZFHD1-FKBPx3 with FKBPx3-VP16 or FKBPx3-p65, pZHWTx8SVSEAP reporter; assay: FK1012-dependent SEAP transcriptional activation in 293 cells; type: cell-based; details: 24 hour incubation
# Protocol: 293 cells were grown in D-MEM (Gibco BRL) supplemented with 10% Bovine Calf Serum. Cells in 35 mm dishes (2.5×10^5 cells/dish) were transiently transfected with use of calcium phosphate precipitation (Ausubel et. al., 1994). Each dish received 375 ng pZHWTx8SVSEAP; 12 ng pCGNNZFHD1-FKBPx3 and 25 ng pCGNNFKBPx3-VP16 or pCGNNFKBPx3-p65. Following transfection, 2 ml fresh media was added and supplemented with FK1012 to the desired concentration. After a 24 hour incubation […] aliquot of media was removed and assayed for SEAP activity as described (Spencer et. al., 1993).
# [2] = hGH clearance after bolus administration; type: in vivo; details: i.p. or i.v.
# Text: Therefore, the observed hGH secretion in this example appears to be a sustained phenomenon.
# [3] = system: ZFHD1-FKBPx3 and FRB-p65 fusion proteins, hGH reporter linked to ZFHD1 binding sites; assay: Rapamycin-dependent hGH expression in transfected HT1080 cell culture; type: cell-based; details: HT1080 cells with three constructs
# Protocol: Using the approach described in Example 6, constructs were prepared encoding the ZFHD1-FKBPx3 fusion protein, a second fusion protein containing the FKBP:rapaymcin binding (“FRB”) region of FRAP linked to the p65 activation domain, and a reporter cassette containing a gene encoding human growth hormone linked to multiple ZFHD1 binding sites. The natural product, rapamycin, forms a ternary complex with FKBP12 and FRAP. Similarly, rapamycin is capable of binding to one or more of the FKBP domains and FRAP FRB domains of the fusion proteins.
# [4] = system: ZFHD1-FKBPx3 and FRB-p65 fusion proteins, hGH target gene in implanted cells; assay: Rapamycin-dependent serum hGH in nu/nu mice implanted with transfected HT1080 cells; type: in vivo; details: rapamycin i.v. 10-10,000 μg/kg, serum 17 hours after administration
# Protocol: Human cells (2×10^6) transfected with plasmids encoding transcription factors ZFHD1-FKBPx3 and FRB-p65 and a target gene directing the expression of human growth hormone (hGH) were injected into the skeletal muscles of nu/nu mice. Mice were treated with the indicated concentration of rapamycin by tail vein injection. After 17 hours, serum hGH levels were determined by ELISA. Each point represents X±SEM (n=at least 5 per point). Control animals received either engineered cells without drug or drug (10^3 or 10^4 μg/kg) without engineered cells.
# 2×10^6 cells from the transfected HT1080 culture were administered to nu/nu mice by intramuscular injection. Following cell implantation, rapamycin was administered i.v. over a range of doses (from 10-10,000 μg/kg). Serum samples were collected from the mice 17 hours after rapamycin administration. Control groups consisted of mice that received no cells but 1.0 mg/kg rapamycin (i.v.) as well as mice that received the cells but no rapamycin.
# Neither control group produced measurable hGH. The limit of detection of the hGH assay is 0.0125 ng/ml.
compound,measurement,setting,value
CO[C@H]1C[C@@H](C)C/C(C)=C/[C@@H](CCOC(=O)NCc2ccc(CNC(=O)OCC[C@@H]3/C=C(\C)C[C@H](C)C[C@H](OC)C4O[C@@](O)(C(=O)C(=O)N5CCCC[C@H]5C(=O)OC(/C(C)=C/[C@@H]5CC[C@@H](O)[C@H](OC)C5)[C@H](C)[C@@H](O)CC3=O)[C@H](C)C[C@H]4OC)cc2)C(=O)C[C@H](O)[C@@H](C)C(/C(C)=C/[C@@H]2CC[C@@H](O)[C@H](OC)C2)OC(=O)[C@@H]2CCCCN2C(=O)C(=O)[C@]2(O)OC1[C@H](OC)C[C@H]2C (some centres unmarked) [FK1012],FK1012 concentration at peak activation,[1],100 nM
"hGH: human growth hormone, reporter gene product; bolus clearance stated",hGH clearance half-life,[2],less than 2 minutes
same,time to undetectable hGH levels,[2],≤ 30 min
rapamycin,rapamycin-dependent expression of the hGH gene in cell culture,[3],rapamycin-dependent expression of the hGH gene
same,expression of hGH (circulating hGH),[4],Dose-responsive expression of hGH

# From patent US7763446B2, “Chimeric DNA-binding proteins” (Massachusetts Institute of Technology, priority 1994, dated 2010)
